Assay results reported in patent US12152038B2, “Vasopressin receptor antagonists and products and methods related thereto” (Neumora Therapeutics, Inc., priority 2017, dated 2024).

Tested on: Male CD-1 mice
Assay: AVP induced scratching, digging and grooming behavior in mouse
Type: in vivo
Settings: po, AVP i.c.v., 15 minutes observation
Description: Administration of Arginine-Vasopressin (AVP) intracerebroventricularly (i.c.v.) elicits characteristic scratching, digging and grooming behavior in mice that can be measured readily and is sensitive to blockade with vasopressin antagonists (Meisenberg, Ann N Y Acad Sci. 525:257-69, 1988; Bleickardt et. al., Psychopharmacology (Berl). 202(4):711-8, 2009).
Male CD-1 mice (Charles River Germany) weighing 22-25 g upon the study in-life were used for this study. Animals were housed in groups of 4-5 per cage in standard temperature (22±1° C.) and light-controlled environment (lights on from 7 am to 8 pm), with ad libitum access to food and water. Prior to commencing any procedures to the mice, they were allowed to habituate in the vivarium for a minimum of 7 days. Anesthesia was induced in a plexiglass chamber for 2-3 min with 5% isoflurane and maintained through a snout mask with 1-2% isoflurane thereafter. A homeothermic blanket system with a rectal probe was used to monitor and maintain the animal's body temperature at 37.0° C.±1.5° C. during the operation. Anesthetized mice were placed in a stereotaxic apparatus and skin between the ears shaved and disinfected with povidone-iodine solution (Betadine). A 10-μl Hamilton syringe with 28-gauge needle was used for the i.c.v. injections. All animals receive identical AVP injections (3.689 μM) or sterile saline (0.9% sodium chloride solution) into the right lateral ventricle at the following coordinates: AP=+0.5 mm; ML=+1.0 mm; DV=−2.5 mm (approximately from bregma). The actual coordinates were calculated by the distance from the point in midline between the eyes and no skin incision was made. […]
Mice were observed and video-recorded for 15 minutes following AVP/saline administration and behaviors were measured (in seconds) and a cumulative time was calculated. […] Using this assay, balovaptan (100 and 300 mg/kg, po), JNJ-17308616 (30, 100 mg/kg, po) and Compound No. 1-83B (100, 300, 500 mg/kg, po) were evaluated for antagonist activity to AVP-induced scratching behaviors.

`CC1COc2cc(Cl)ccc2N1C(=O)N1CC2(C1)CN(c1ncccn1)C2` (single isomer, unassigned) [1-83-B, (7-chloro-3-methyl-2,3-dihydro-4H-benzo[b][1,4]oxazin-4-yl)(6-(pyrimidin-2-yl)-2,6-diazaspiro[3.3]heptan-2-yl)methanone] was tested, and the “antagonist activity to AVP-induced scratching behaviors” value (300 mg/kg) was “effective” and the “antagonist activity to AVP-induced scratching behaviors” value (500 mg/kg) was “effective”.
